Measured values as given in PubChem BioAssay AID330 (DTP/NCI, 2004).
Where “and” joins values, the source holds several entries; their conditions need not be identical. Equal values may be shown once. Toxic doses and inconclusive results are not listed. Rule for the calls: active = survival T/C of 150% or more; inactive = T/C below 125% in these data.

Tested on: P388 leukemia ip, CD2F1 mice, survival T/C
Test: NCI In Vivo Anticancer Drug Screen. Data for tumor model P388 Leukemia (intraperitoneal) in CD2F1 (CDF1) mice
Conditions: endpoint: median survival time, higher = longer survival
Method in brief: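 Mice carrying the transplanted tumor received test compound or vehicle. Survival was recorded in each group, and the value is the treated-group measurement divided by that of the vehicle-treated control group.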

[1] = dose: 25.0 mg/kg/injection, schedule: Q01DX009 (ip), vehicle: saline with Tween-80
[2] = dose: 50.0 mg/kg/injection, schedule: Q01DX009 (ip), vehicle: saline with Tween-80
[3] = dose: 50.0 mg/kg/injection, schedule: Q01DX005 (ip), vehicle: saline with Tween-80
[4] = dose: 60.0 mg/kg/injection, schedule: Q01DX005 (ip), vehicle: Klucel (hydroxypropylcellulose) (HPC)
[5] = dose: 120.0 mg/kg/injection, schedule: Q01DX005 (ip), vehicle: Klucel (hydroxypropylcellulose) (HPC)
[6] = dose: 240.0 mg/kg/injection, schedule: Q01DX005 (ip), vehicle: Klucel (hydroxypropylcellulose) (HPC)
[7] = dose: 50.0 mg/kg/injection, schedule: Q01DX005 (ip), vehicle: Klucel (hydroxypropylcellulose) (HPC)
[8] = dose: 100.0 mg/kg/injection, schedule: Q01DX005 (ip), vehicle: Klucel (hydroxypropylcellulose) (HPC)
[9] = dose: 200.0 mg/kg/injection, schedule: Q01DX005 (ip), vehicle: Klucel (hydroxypropylcellulose) (HPC)
[10] = dose: 100.0 mg/kg/injection, schedule: Q01DX001 (ip), vehicle: saline with Tween-80
[11] = dose: 200.0 mg/kg/injection, schedule: Q01DX001 (ip), vehicle: saline with Tween-80
[12] = dose: 400.0 mg/kg/injection, schedule: Q01DX001 (ip), vehicle: saline with Tween-80
[13] = dose: 6.25 mg/kg/injection, schedule: Q01DX009 (ip), vehicle: saline with Tween-80
[14] = dose: 12.5 mg/kg/injection, schedule: Q01DX009 (ip), vehicle: saline with Tween-80
[15] = dose: 50.0 mg/kg/injection, schedule: Q01DX009 (ip), vehicle: saline
[16] = dose: 100.0 mg/kg/injection, schedule: Q01DX009 (ip), vehicle: saline
[17] = dose: 200.0 mg/kg/injection, schedule: Q01DX009 (ip), vehicle: saline
[18] = dose: 25.0 mg/kg/injection, schedule: Q01DX009 (ip), vehicle: Klucel (hydroxypropylcellulose) (HPC)

Measured: T/C

Nc1nnc2nc(CC(=O)/C=C/c3ccccc3)/c(=C/C(=O)/C=C/c3ccccc3)n12
inactive: dose: 100.0 mg/kg/injection, schedule: Q04DX002 (ip), vehicle: saline with Tween-80 104 % of control | dose: 200.0 mg/kg/injection, schedule: Q04DX002 (ip), vehicle: saline with Tween-80 107 % of control | dose: 400.0 mg/kg/injection, schedule: Q04DX002 (ip), vehicle: saline with Tween-80 100 % of control

O=C(/C=C/c1ccccc1)NOC(=O)/C=C/c1ccccc1
inactive: [1] 107 % of control | [2] 107 % of control and 123 % of control | dose: 100.0 mg/kg/injection, schedule: Q01DX009 (ip), vehicle: saline with Tween-80 111 % of control and 114 % of control | dose: 200.0 mg/kg/injection, schedule: Q01DX009 (ip), vehicle: saline with Tween-80 115 % of control

O=c1[nH]nnc2c1ncn2C1OC(CO)C(O)C1O (stereo not drawn)
inactive: dose: 12.5 mg/kg/injection, schedule: Q01DX001 (ip), vehicle: saline 99 % of control | dose: 25.0 mg/kg/injection, schedule: Q01DX001 (ip), vehicle: saline 106 % of control | dose: 50.0 mg/kg/injection, schedule: Q01DX001 (ip), vehicle: saline 100 % of control | dose: 100.0 mg/kg/injection, schedule: Q01DX001 (ip), vehicle: saline 99 % of control

O=C1OC(=O)c2ccc3c4c(ccc1c24)C(=O)OC3=O
inactive: [3] 104 % of control | dose: 100.0 mg/kg/injection, schedule: Q01DX005 (ip), vehicle: saline with Tween-80 105 % of control

Nc1nc(N)c2nc3c(ccc4ccccc43)nc2n1
inactive: dose: 60.0 mg/kg/injection, schedule: Q01DX005 (ip), vehicle: saline with Tween-80 94 % of control | dose: 120.0 mg/kg/injection, schedule: Q01DX005 (ip), vehicle: saline with Tween-80 96 % of control | dose: 240.0 mg/kg/injection, schedule: Q01DX005 (ip), vehicle: saline with Tween-80 104 % of control

CC1=CC(=C2C(=O)c3ccccc3C2=O)C=C(C)N1CCNCCO
inactive: [4] 99 % of control | [5] 90 % of control | [6] 93 % of control

CCOC(=O)/C=C(/C)Nc1ccc2c(c1)OCO2
inactive: [7] 103 % of control | [8] 110 % of control | [9] 111 % of control

O=C1CCCC(CCc2ccccc2)O1 (stereo not drawn)
inactive: [10] 100 % of control | [11] 101 % of control | [12] 100 % of control

COC(C(=O)N/C(N)=N/O)c1c(Cl)cccc1Cl (stereo not drawn)
inactive: [7] 98 % of control | [8] 109 % of control

O=C(NCCc1ccccc1Br)c1ccccc1
inactive: [7] 100 % of control | [8] 97 % of control | [9] 93 % of control

O=[N+]([O-])C1CCC(O)C([N+](=O)[O-])C1 (stereo not drawn) (tested in a mixture with another compound)
inactive: [13] 100 % of control | [14] 96 % of control | [1] 99 % of control

N#CCC1(C#N)CCC(OCc2ccccc2)CC1 (stereo not drawn)
inactive: [15] 100 % of control and 99 % of control | [16] 100 % of control | [17] 102 % of control and 101 % of control

COc1cc(Br)c(CC(=O)c2ccc3c(c2)OCO3)cc1OC
inactive: [3] 86 % of control | dose: 200.0 mg/kg/injection, schedule: Q01DX005 (ip), vehicle: saline with Tween-80 87 % of control

CC(C)C12CC3=C(C(=O)C1O2)C1(C)CCC2=C(COC2=O)C1CC3 (stereo not drawn)
inactive: dose: 3.75 mg/kg/injection, schedule: Q01DX005 (ip), vehicle: DMSO 102 % of control | dose: 7.5 mg/kg/injection, schedule: Q01DX005 (ip), vehicle: DMSO 119 % of control | dose: 15.0 mg/kg/injection, schedule: Q01DX005 (ip), vehicle: DMSO 123 % of control

OCCSCc1ccc(F)cc1
inactive: [7] 101 % of control | [8] 97 % of control | [9] 104 % of control

NC(=O)/C(N=Nc1ccccc1)=N\Nc1ccccc1
inactive: dose: 6.25 mg/kg/injection, schedule: Q01DX005 (ip), vehicle: Klucel (hydroxypropylcellulose) (HPC) 91 % of control | dose: 12.5 mg/kg/injection, schedule: Q01DX005 (ip), vehicle: Klucel (hydroxypropylcellulose) (HPC) 91 % of control | dose: 25.0 mg/kg/injection, schedule: Q01DX005 (ip), vehicle: Klucel (hydroxypropylcellulose) (HPC) 87 % of control

O/N=C1/CN(CCN2CC(NO)=N/C(=N\O)C2)CC(NO)=N1
inactive: [7] 90 % of control | [8] 89 % of control | [9] 89 % of control

NC(=S)N/N=C/c1ccc(OC(F)(F)F)cn1
inactive: dose: 1.56 mg/kg/injection, schedule: Q01DX009 (ip), vehicle: saline with Tween-80 101 % of control | dose: 3.13 mg/kg/injection, schedule: Q01DX009 (ip), vehicle: saline with Tween-80 101 % of control and 107 % of control | [13] 100 % of control and 95 % of control | [14] 99 % of control and 101 % of control | [1] 101 % of control | [2] 114 % of control

CC(Cl)C(Cl)(Cl)/C=C\[N+](=O)[O-] (stereo not drawn)
inactive: [15] 103 % of control | [16] 102 % of control | [17] 98 % of control

CC(=O)/C(C)=C/C(=O)O
inactive: dose: 25.0 mg/kg/injection, schedule: Q01DX009 (ip), vehicle: saline 100 % of control | dose: 25.0 mg/kg/injection, schedule: Q04DX003 (ip), vehicle: saline 104 % of control | [15] 100 % of control | dose: 50.0 mg/kg/injection, schedule: Q04DX003 (ip), vehicle: saline 122 % of control | [16] 109 % of control | dose: 100.0 mg/kg/injection, schedule: Q04DX003 (ip), vehicle: saline 100 % of control

O=C(NC(=O)c1c(F)cccc1F)Nc1cc(Cl)c(F)c(Cl)c1F
inactive: dose: 15.0 mg/kg/injection, schedule: Q01DX005 (ip), vehicle: Klucel (hydroxypropylcellulose) (HPC) 98 % of control | dose: 30.0 mg/kg/injection, schedule: Q01DX005 (ip), vehicle: Klucel (hydroxypropylcellulose) (HPC) 90 % of control and 93 % of control | [4] 87 % of control and 94 % of control | [5] 93 % of control | [6] 88 % of control

CNc1ccc(/C=C/c2ccnc3ccccc23)cc1
inactive: dose: 3.12 mg/kg/injection, schedule: Q01DX009 (ip), vehicle: Klucel (hydroxypropylcellulose) (HPC) 95 % of control and 98 % of control | dose: 6.25 mg/kg/injection, schedule: Q01DX009 (ip), vehicle: Klucel (hydroxypropylcellulose) (HPC) 108 % of control and 111 % of control and 112 % of control | dose: 12.5 mg/kg/injection, schedule: Q01DX009 (ip), vehicle: Klucel (hydroxypropylcellulose) (HPC) 113 % of control and 97 % of control | [18] 109 % of control and 87 % of control

O=C(O)Cc1cn2cc(Br)ccc2n1
inactive: [10] 105 % of control | [11] 109 % of control | [12] 104 % of control

OCC1(CO)C(O)C2CCN1CC2 (stereo not drawn)
inactive: dose: 100.0 mg/kg/injection, schedule: Q04DX003 (ip), vehicle: Klucel (hydroxypropylcellulose) (HPC) 108 % of control | dose: 200.0 mg/kg/injection, schedule: Q04DX003 (ip), vehicle: Klucel (hydroxypropylcellulose) (HPC) 110 % of control | dose: 400.0 mg/kg/injection, schedule: Q04DX003 (ip), vehicle: Klucel (hydroxypropylcellulose) (HPC) 108 % of control

CCN(CC)C1=C(C)C2C(C)(C)N=NC12C(=O)OC (stereo not drawn)
inactive: dose: 50.0 mg/kg/injection, schedule: Q01DX005 (ip), vehicle: saline 98 % of control | dose: 100.0 mg/kg/injection, schedule: Q01DX005 (ip), vehicle: saline 102 % of control | dose: 200.0 mg/kg/injection, schedule: Q01DX005 (ip), vehicle: saline 116 % of control

O=C(CBr)c1cc2c(cc1Br)OCO2
inactive: dose: 12.5 mg/kg/injection, schedule: Q01DX001 (ip), vehicle: Klucel (hydroxypropylcellulose) (HPC) 102 % of control | dose: 25.0 mg/kg/injection, schedule: Q01DX001 (ip), vehicle: Klucel (hydroxypropylcellulose) (HPC) 104 % of control | dose: 50.0 mg/kg/injection, schedule: Q01DX001 (ip), vehicle: Klucel (hydroxypropylcellulose) (HPC) 103 % of control

CN(C)CCCC12OC(c3ccccc31)C(O)c1ccccc12 (stereo not drawn)
inactive: [18] 102 % of control | dose: 50.0 mg/kg/injection, schedule: Q01DX009 (ip), vehicle: Klucel (hydroxypropylcellulose) (HPC) 103 % of control | dose: 100.0 mg/kg/injection, schedule: Q01DX009 (ip), vehicle: Klucel (hydroxypropylcellulose) (HPC) 105 % of control | dose: 200.0 mg/kg/injection, schedule: Q01DX009 (ip), vehicle: Klucel (hydroxypropylcellulose) (HPC) 94 % of control

CC(O)(C#Cc1ccccc1)c1nc2ccccc2s1 (stereo not drawn)
inactive: [4] 101 % of control | [5] 101 % of control | [6] 100 % of control
